Experimental data taken from patent publication US11034658B2, “Pyridinyl pyrazoles as modulators of RORγT” (Janssen Pharmaceutica NV, priority 2018, dated 2021).
Marks after values point to notes of the source that are not given here.

Columns and labels:
[1] = molecular target: human RORγt ligand binding domain (RORγt LBD) (Homo sapiens (Human), UniProt P51449); assay: RORγt ThermoFluor assay
Description: ThermoFluor® is a fluorescence based assay that estimates ligand binding affinities by measuring the effect of a ligand on protein thermal stability (Pantoliano, M. W., Petrella, E. C., Kwasnoski, J. D., Lobanov, V. S., Myslik, J., Graf, E., Carver, T., Asel, E., Springer, B. A., Lane, P., and Salemme, F. R. (2001) High-density miniaturized thermal shift assays as a general strategy for drug discovery. J Biomol Screen 6, 429-40, and Matulis, D., Kranz, J. K., Salemme, F. R., and Todd, M. J. (2005) Thermodynamic stability of carbonic anhydrase: measurements of binding affinity and stoichiometry using ThermoFluor. Biochemistry 44, 5258-66). This approach is applicable to a wide variety of systems, and rigorous in theoretical interpretation through quantitation of equilibrium binding constants (KD).
The shift in the melting point described as a ΔTm is proportional to the concentration and affinity of the ligand. The compound potency may be compared as a rank order of either values at a single compound concentration or in terms of KD values, estimated from concentration response curves.
RORγt ThermoFluor® Assay Construct
For the RORγt construct used in the ThermoFluor® assay, numbering for the nucleotide sequences was based on the reference sequence for human RORγt, transcript variant 2, NCBI Accession: NM 001001523.1 (SEQ ID NO:1). Nucleotides 850-1635 (SEQ ID NO:2) coding for the wild type human RORγt ligand binding domain (RORγt LBD) were cloned into the pHIS1 vector, a modified pET E. coli expression vector (Accelagen, San Diego), containing an in-frame N-terminal His-tag and a TurboTEV protease cleavage site (ENLYFQG, SEQ ID NO:3) upstream of the cloned insert sequence. The amino acid sequence for the RORγt construct used in the Thermofluor® assay is shown as SEQ ID NO:4.
ThermoFluor® experiments were carried out using instruments owned by Janssen Research and Development, L.L.C. through its acquisition of 3-Dimensional Pharmaceuticals, Inc. 1,8-ANS (Invitrogen) was used as a fluorescent dye. Protein and compound solutions are dispensed into black 384-well polypropylene PCR microplates (Abgene) and overlayed with silicone oil (1 μL, Fluka, type DC 200) to prevent evaporation.
Bar-coded assay plates are robotically loaded onto a thermostatically controlled PCR-type thermal block and then heated at a typical ramp-rate of 1° C./min for all experiments. Fluorescence was measured by continuous illumination with UV light (Hamamatsu LC6) supplied via fiber optic and filtered through a band-pass filter (380-400 nm; >6 OD cutoff). Fluorescence emission of the entire 384-well plate was detected by measuring light intensity using a CCD camera (Sensys, Roper Scientific) filtered to detect 500±25 nm, resulting in simultaneous and independent readings of all 384 wells. Images were collected at each temperature, and the sum of the pixel intensity in a given area of the assay plate was recorded versus temperature. Reference wells contained RORγt without compounds, and the assay conditions were as follows:
Project compounds were arranged in a pre-dosed mother plate (Greiner Bio-one) wherein compounds are serially diluted in 100% DMSO by 1:2 from a high concentration of 10 mM over 12 columns within a series (column 12 is a reference well containing DMSO, no compound). The compounds were robotically dispensed directly into assay plates (1×=46 nL) using a Hummingbird capillary liquid handling instrument (Digilab). Following compound dispense, protein and dye in buffer was added to achieve the final assay volume of 3 μL, followed by 1 μL of silicone oil.
The binding affinity was estimated as described previously (Matulis, D., Kranz, J. K., Salemme, F. R., and Todd, M. J. (2005) Thermodynamic stability of carbonic anhydrase: measurements of binding affinity and stoichiometry using ThermoFluor®. Biochemistry 44, 5258-66) using the following thermodynamic parameters of protein unfolding:
Reference RORγt Tm: 47.8° C.

[2] = molecular target: full-length human RORγt (GAL4-DBD-RORγt fusion) in HEK293T cells (Homo sapiens (Human), UniProt P51449); assay: RORγt (full-length human) reporter assay, conditions A or B; assay type: cell-based; details: for IC50: HEK293T cells, read-out: RORγt (FL) Reporter Assay A or B, IC50; for inhibition at 3 µM / RORγt (FL) Reporter Assay A or B, % inhibition: 3 μM compound concentration (footnote *)
full-length human RORγt (GAL4-DBD-RORγt fusion) in HEK293T cells, sequence (P51449 other isoform, or with tags, fused parts or gaps): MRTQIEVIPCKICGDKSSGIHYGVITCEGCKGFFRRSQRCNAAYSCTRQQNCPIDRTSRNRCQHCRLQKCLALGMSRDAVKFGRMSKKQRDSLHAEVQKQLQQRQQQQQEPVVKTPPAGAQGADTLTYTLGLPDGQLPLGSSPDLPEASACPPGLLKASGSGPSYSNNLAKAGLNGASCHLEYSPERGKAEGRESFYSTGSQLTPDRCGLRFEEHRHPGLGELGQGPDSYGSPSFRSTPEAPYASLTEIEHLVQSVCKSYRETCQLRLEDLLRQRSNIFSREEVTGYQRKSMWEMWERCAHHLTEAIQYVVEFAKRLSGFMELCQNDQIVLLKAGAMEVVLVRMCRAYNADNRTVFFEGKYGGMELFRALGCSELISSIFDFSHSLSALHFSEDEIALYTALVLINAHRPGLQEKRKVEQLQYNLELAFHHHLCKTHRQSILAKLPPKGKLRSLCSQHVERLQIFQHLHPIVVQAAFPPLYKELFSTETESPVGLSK
Method: RORγt (Full-Length Human) Reporter Assay:
(§1) HEK293T cells were plated at 35,000 per well in 96-well plate in medium of DMEM with 10% FBS. […] After overnight (16 to 20 hours) incubation, media were removed and cells were lysed with 50 μL Glo Lysis Buffer (Promega) for 10-15 minutes followed by 10 minute incubation with 50 μL Dual Glo reagent (Promega) at room temperature. Firefly luciferase luminescence was measured using a BMG Pherastar plate reader. To each well, 50 μL Stop and Glo reagent was added and incubated for 10 minutes at room temperature. Renilla luminescence was measured using a BMG Pherastar plate reader. To calculate the effect of compounds on RORγt activity, firefly values were normalized against values of DMSO only and values of reference compound at saturating concentration, then further normalized against Renilla signals. IC50s were generated by plotting final Renilla normalized data against compound concentration and percent inhibition was calculated against DMSO control.
as §1, with “at 8750 cells” for “at 35,000”, “in 384-well” for “in 96-well”, “with 20” for “with 50”, “well, 20” for “well, 50”

[3] = HEK-293T, read-out: RORγt (FL) Reporter Assay A or B, % inhibition

human RORγt ligand binding domain (RORγt LBD), sequence (P51449 other isoform, or with tags, fused parts or gaps): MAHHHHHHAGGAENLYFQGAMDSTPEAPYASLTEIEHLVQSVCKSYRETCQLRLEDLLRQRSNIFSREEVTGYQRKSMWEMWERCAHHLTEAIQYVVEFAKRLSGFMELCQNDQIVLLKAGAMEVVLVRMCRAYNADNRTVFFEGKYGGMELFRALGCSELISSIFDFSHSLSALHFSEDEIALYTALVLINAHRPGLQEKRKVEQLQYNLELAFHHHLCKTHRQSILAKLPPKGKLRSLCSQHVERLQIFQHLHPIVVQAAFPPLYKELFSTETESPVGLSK

| Kd [1] | IC50 [2] | inhibition at 3 µM [2, 3] | inhibition at 1 µM ([2]; HEK-293T, 1 μM compound concentration (footnote ***), read-out: RORγt (FL) Reporter Assay A or B, % inhibition) | RORγt (FL) Reporter Assay A or B, % inhibition [2] | SMILES |
| --- | --- | --- | --- | --- | --- |
| 40 nM | 730 nM | 72% | – | – | CCn1nc(C(=O)NC[C@@]2(O)CC[C@H](S(C)(=O)=O)C[C@@H]2O)c(Cl)c1-c1cnc(CC(C)(C)C(F)F)cc1OC(F)F (stereo in doubt) [Example 39, 4-Chloro-5-(6-(3,3-difluoro-2,2-dimethylpropyl)-4-(difluoromethoxy)pyridin-3-yl)-N-(((1S*,2S*,4S*)-1,2-dihydroxy-4-(methylsulfonyl)cyclohexyl)methyl)-1-ethyl-1H-pyrazole-3-carboxamide] |
| 40 nM | 570 nM | 84% | – | – | CCn1nc(C(=O)NC[C@]2(O)CC[C@@H](S(C)(=O)=O)C[C@H]2O)c(Cl)c1-c1cnc(CC(C)(C)C(F)F)cc1OC(F)F (stereo in doubt) [Example 40, 4-Chloro-5-(6-(3,3-difluoro-2,2-dimethylpropyl)-4-(difluoromethoxy)pyridin-3-yl)-N-(((1R*,2R*,4R*)-1,2-dihydroxy-4-(methylsulfonyl)cyclohexyl)methyl)-1-ethyl-1H-pyrazole-3-carboxamide] |
| 66 nM | 320 nM | – | 84% | – | CCn1nc(C(=O)NC[C@@]2(O)CC[C@H](S(C)(=O)=O)C[C@@H]2O)c(C)c1-c1cnc(CC(C)(C)C(F)F)cc1OC(F)F (stereo in doubt) [Example 43, 5-(6-(3,3-Difluoro-2,2-dimethylpropyl)-4-(difluoromethoxy)pyridin-3-yl)-N-(41S*,2S*,4S*)-1,2-dihydroxy-4-(methylsulfonyl)cyclohexyl)methyl)-1-ethyl-4-methyl-1H-pyrazole-3-carboxamide] |
| 69 nM | 890 nM | 85% | – | – | CCn1nc(C(=O)NC[C@]2(O)CC[C@@H](S(C)(=O)=O)C[C@H]2O)c(C)c1-c1cnc(CC(C)(C)C(F)F)cc1OC(F)F (stereo in doubt) [Example 44, 5-(6-(3,3-Difluoro-2,2-dimethylpropyl)-4-(difluoromethoxy)pyridin-3-yl)-N-(((1R*,2R*,4R*)-1,2-dihydroxy-4-(methylsulfonyl)cyclohexyl)methyl)-1-ethyl-4-methyl-1H-pyrazole-3-carboxamide] |
| 1.7 nM | 44 nM | 95% | – | – | CCn1nc(C(=O)NC[C@]2(O)CC[C@@H](S(C)(=O)=O)C[C@H]2O)c(Cl)c1-c1ccc(CC(C)(C)C(F)(F)F)nc1OC(F)F (stereo in doubt) [Example 47, 4-Chloro-5-(2-(difluoromethoxy)-6-(3,3,3-trifluoro-2,2-dimethylpropyl)pyridin-3-yl)-N-(((1R*,2R*,4R*)-1,2-dihydroxy-4-(methylsulfonyl)cyclohexyl)methyl)-1-ethyl-1H-pyrazole-3-carboxamide] |
| 2 nM | 5.7 nM | 101% | – | – | CCn1nc(C(=O)NC[C@@]2(O)CC[C@H](S(C)(=O)=O)C[C@@H]2O)c(Cl)c1-c1ccc(CC(C)(C)C(F)(F)F)nc1OC(F)F (stereo in doubt) [Example 48, 4-Chloro-5-(2-(difluoromethoxy)-6-(3,3,3-trifluoro-2,2-dimethylpropyl)pyridin-3-yl)-N-(((1S*,2S*,4S*)-1,2-dihydroxy-4-(methylsulfonyl)cyclohexyl)methyl)-1-ethyl-1H-pyrazole-3-carboxamide] |
| 11 nM | 110 nM | 116% | – | – | CCn1nc(C(=O)NC[C@]2(O)CC[C@@H](S(N)(=O)=O)CC2)c(Cl)c1-c1cnc(CC(C)(C)C(F)(F)F)cc1OC(F)F [Example 1, 4-Chloro-5-(4-(difluoromethoxy)-6-(3,3,3-trifluoro-2,2-dimethylpropyl)pyridin-3-yl)-1-ethyl-N-(((1s,4s)-1-hydroxy-4-sulfamoylcyclohexyl)methyl)-1H-pyrazole-3-carboxamide] |
| 29 nM | 930 nM | 104% | – | – | CCn1nc(C(=O)NC[C@]2(O)CC[C@@H](S(N)(=O)=O)CC2)c(C)c1-c1cnc(CC(C)(C)C(F)(F)F)cc1OC(F)F [Example 2, 5-(4-(Difluoromethoxy)-6-(3,3,3-trifluoro-2,2-dimethylpropyl)pyridin-3-yl)-1-ethyl-N-(((1s,4s)-1-hydroxy-4-sulfamoylcyclohexyl)methyl)-4-methyl-1H-pyrazole-3-carboxamide] |
| 8.7 nM | 430 nM | – | – | 79* % | CCn1nc(C(=O)NC[C@H]2CC[C@H](S(=O)(=O)NC(C)=O)CC2)c(Cl)c1-c1cnc(CC(C)(C)C(F)(F)F)cc1OC(F)F [Example 5, N-(((1r,4r)-4-(N-acetylsulfamoyl)cyclohexyl)methyl)-4-chloro-5-(4-(difluoromethoxy)-6-(3,3,3-trifluoro-2,2-dimethylpropyl)pyridin-3-yl)-1-ethyl-1H-pyrazole-3-carboxamide] |
| 2.9 nM | 240 nM | – | – | 100* % | CCn1nc(C(=O)NC[C@H]2CC[C@H](S(=O)(=O)NC(N)=O)CC2)c(Cl)c1-c1cnc(CC(C)(C)C(F)(F)F)cc1OC(F)F [Example 7, N-(((1r,4r)-4-(N-carbamoylsulfamoyl)cyclohexyl)methyl)-4-chloro-5-(4-(difluoromethoxy)-6-(3,3,3-trifluoro-2,2-dimethylpropyl)pyridin-3-yl)-1-ethyl-1H-pyrazole-3-carboxamide] |

| SMILES | Kd [1] | IC50 [2] | inhibition at 3 µM [2, 3] | inhibition at 1 µM ([2]; HEK-293T, 1 μM compound concentration (footnote ***), read-out: RORγt (FL) Reporter Assay A or B, % inhibition) | RORγt (FL) Reporter Assay A or B, % inhibition [2] |
| --- | --- | --- | --- | --- | --- |
| CCn1nc(C(=O)NC[C@H]2CC[C@H](S(=O)(=O)NC(=O)NC)CC2)c(Cl)c1-c1cnc(CC(C)(C)C(F)(F)F)cc1OC(F)F [Example 6, 4-Chloro-5-(4-(difluoromethoxy)-6-(3,3,3-trifluoro-2,2-dimethylpropyl)pyridin-3-yl)-1-ethyl-N-(((1r,4r)-4-(N-(methylcarbamoyl)sulfamoyl)cyclohexyl)methyl)-1H-pyrazole-3-carboxamide] | 1.9 nM | 270 nM | – | – | 87* % |
